Measured values reported in US10851073B2, “Protein tyrosine phosphatase inhibitors and methods of use thereof” (Calico Life Sciences LLC, priority 2019, dated 2020).
pIC50: −log10 of the molar value. Where two headings read alike, the source gives them in different places.

Test system: B16F10 mouse melanoma cells
Assay: B16F10 IFNγ-induced cellular growth inhibition assay
Format: cell-based
Details: B16-F10, with 0.5 ng/mL IFNγ
Experimental: Example 229: B16F10 IFNγ-Induced Cellular Growth Inhibition Assay B16F10 mouse melanoma cells (ATCC Cat^# CRL-6475, Manassas, Va.) were seeded at a density of 500 cells per well in a 384-well clear bottom plate (Corning Cat^#3765, Corning, N.Y.) in 25 μL total volume of DMEM+10% FBS (Sigma Cat^# D6429 and Sigma Cat^# F4135, St. Louis, Mo.). Cells were allowed to adhere overnight at 37° C.+5% CO2. On the following day, 12.5 μL of mouse IFNγ (RD systems Cat^#485-MI/CF, Minneapolis, Minn.) was added to half of the plate (columns 13-24) at a concentration of 2 ng/mL for a final assay concentration of 0.5 ng/mL of IFNγ. Media only (12.5 μL of DMEM+10% FBS) was added to the remainder of the plate (columns 1-12). Next, compounds resuspended in DMSO (Sigma Cat^# D2650) at 100 mM were diluted in semi-log dilutions in DMSO ranging from 100 mM to 0.001 mM and DMSO only controls were included. The compound/DMSO dilutions were further diluted 1:250 in DMEM+10% FBS, and 12.5 μL of these dilutions were added in triplicates to cells of both treatment arms (with and without IFNγ). Final compound concentrations ranged from 100 μM to 0.001 μM with a final DMSO concentration of 0.1%. Compounds were only dosed in the inner 240 wells, avoiding the outer 2-well perimeter of the plate to minim/ze edge effects. Finally, the plate was loaded into an IncuCyte® S3 Live Cell Analysis System (Essen Bioscience-Sartorius, Ann Arbor, Mich.) maintained in a 37° C.+5% CO2 incubator, allowed to equilibrate for 2 hours, and imaged every 6 hours for 5 days. Confluence over time for compound dilutions in the presence and absence of IFNγ was measured. Growth inhibition values were obtained when the “DMSO/no IFNγ” control reached confluence >95%. At these time points, for each compound the percent growth inhibition at every compound dose level was calculated relative to the “DMSO/with IFNγ” control and used to determine the IC50.

[1] = read-out: B16F10 Growth Inhibition IC50

## CC(C)(C)CCNc1ccc2cc(O)c(N3CC(=O)NS3(=O)=O)c(F)c2c1 [Compound W]
[1]
  pIC50: 5.39

## CC(C)OCCCN1CCc2cc(O)c(N3CC(=O)NS3(=O)=O)c(F)c2C1 [Compound 251, 5-(8-fluoro-6-hydroxy-2-{3-[(propan-2-yl)oxy]propyl}-1,2,3,4-tetrahydroisoquinolin-7-yl)-1λ^6,2,5-thiadiazolidine-1,1,3-trione]
read-out: B16F10 GI IC50
  pIC50: 5.00 to 6.00

## O=C1CN(c2c(O)cc3c(c2F)CN(CCN2CCNCC2)CC3)S(=O)(=O)N1 [Compound 247, 5-{8-fluoro-6-hydroxy-2-[2-(piperazin-1-yl)ethyl]-1,2,3,4-tetrahydroisoquinolin-7-yl}-1λ^6,2,5-thiadiazolidine-1,1,3-trione]
read-out: B16F10 GI IC50
  pIC50: 4.00 to 5.00

## Cc1noc(C)c1CCN1CCc2cc(O)c(N3CC(=O)NS3(=O)=O)c(F)c2C1 [Compound 211, 5-{2-[2-(3,5-dimethyl-1,2-oxazol-4-yl)ethyl]-8-fluoro-6-hydroxy-1,2,3,4-tetrahydroisoquinolin-7-yl}-1λ^6,2,5-thiadiazolidine-1,1,3-trione]
read-out: B16F10 GI IC50
  pIC50: > 6.00

## O=C1CN(c2c(O)cc3c(c2F)CN(CCC2CCOCC2)CC3)S(=O)(=O)N1 [Compound 214, 5-{8-fluoro-6-hydroxy-2-[2-(oxan-4-yl)ethyl]-1,2,3,4-tetrahydroisoquinolin-7-yl}-1λ^6,2,5-thiadiazolidine-1,1,3-trione]
read-out: B16F10 GI IC50
  pIC50: 5.00 to 6.00

## O=C1CN(c2c(O)cc3c(c2F)CN(C(=O)NCC2CC2)CC3)S(=O)(=O)N1 [Compound 258, N-(cyclopropylmethyl)-8-fluoro-6-hydroxy-7-(1,1,4-trioxo-1λ^6,2,5-thiadiazolidin-2-yl)-3,4-dihydroisoquinoline-2(1H)-carboxamide]
read-out: B16F10 GI IC50
  pIC50: 5.00 to 6.00

## COCCCCN1CCc2cc(O)c(N3CC(=O)NS3(=O)=O)c(F)c2C1 [Compound 293, 5-[8-fluoro-6-hydroxy-2-(4-methoxybutyl)-1,2,3,4-tetrahydroisoquinolin-7-yl]-1λ^6,2,5-thiadiazolidine-1,1,3-trione]
read-out: B16F10 GI IC50
  pIC50: 5.00 to 6.00

## COCCCN1CCc2cc(O)c(N3CC(=O)NS3(=O)=O)c(F)c2C1 [Compound 217, 5-[8-fluoro-6-hydroxy-2-(3-methoxypropyl)-1,2,3,4-tetrahydroisoquinolin-7-yl]-1λ^6,2,5-thiadiazolidine-1,1,3-trione]
read-out: B16F10 GI IC50
  pIC50: 5.00 to 6.00

## CC(C)CCNc1ccc2cc(O)c(N3CC(=O)NS3(=O)=O)c(F)c2c1 [Compound V]
[1]
  pIC50: 5.49

## O=C1CN(c2c(O)cc3c(c2F)CC(NCc2ccccn2)CC3)S(=O)(=O)N1 (stereo not shown) [Compound 155, 5-(1-fluoro-3-hydroxy-7-{[(pyridin-2-yl)methyl]amino}-5,6,7,8-tetrahydronaphthalen-2-yl)-1λ^6,2,5-thiadiazolidine-1,1,3-trione]
read-out: B16F10 GI IC50
  pIC50: 4.00 to 5.00

## O=C1CN(c2c(O)cc3c(c2F)CN(CCC2(C(F)(F)F)CC2)CC3)S(=O)(=O)N1 [Compound 243, 5-(8-fluoro-6-hydroxy-2-{2-[1-(trifluoromethyl)cyclopropyl]ethyl}-1,2,3,4-tetrahydroisoquinolin-7-yl)-1λ^6,2,5-thiadiazolidine-1,1,3-trione]
read-out: B16F10 GI IC50
  pIC50: 5.00 to 6.00

## CC(C)CNC(=O)N1CCc2cc(O)c(N3CC(=O)NS3(=O)=O)c(F)c2C1 [Compound 206, 8-fluoro-6-hydroxy-N-(2-methylpropyl)-7-(1,1,4-trioxo-1λ^6,2,5-thiadiazolidin-2-yl)-3,4-dihydroisoquinoline-2(1H)-carboxamide]
read-out: B16F10 GI IC50
  pIC50: 5.00 to 6.00

## O=C1CN(c2c(O)cc3c(c2F)CNCC3)S(=O)(=O)N1 [Compound 143, 5-(8-fluoro-6-hydroxy-1,2,3,4-tetrahydroisoquinolin-7-yl)-1λ^6,2,5-thiadiazolidine-1,1,3-trione]
read-out: B16F10 GI IC50
  pIC50: 5.00 to 6.00

## CC(C)(C)OC(=O)N1CCc2cc(O)c(N3CC(=O)NS3(=O)=O)c(F)c2C1 [Compound 221, tert-butyl 8-fluoro-6-hydroxy-7-(1,1,4-trioxo-1λ^6,2,5-thiadiazolidin-2-yl)-3,4-dihydroisoquinoline-2(1H)-carboxylate]
read-out: B16F10 GI IC50
  pIC50: 5.00 to 6.00

## Cc1nn(C(F)F)c(C)c1CCN1CCc2cc(O)c(N3CC(=O)NS3(=O)=O)c(F)c2C1 [Compound 238, 5-(2-{2-[1-(difluoromethyl)-3,5-dimethyl-1H-pyrazol-4-yl]ethyl}-8-fluoro-6-hydroxy-1,2,3,4-tetrahydroisoquinolin-7-yl)-1λ^6,2,5-thiadiazolidine-1,1,3-trione]
read-out: B16F10 GI IC50
  pIC50: 5.00 to 6.00

## NCCCN1CCc2cc(O)c(N3CC(=O)NS3(=O)=O)c(F)c2C1 [Compound 218, 5-[2-(3-aminopropyl)-8-fluoro-6-hydroxy-1,2,3,4-tetrahydroisoquinolin-7-yl]-1λ^6,2,5-thiadiazolidine-1,1,3-trione]
read-out: B16F10 GI IC50
  pIC50: 4.00 to 5.00

## CC(C)CCCN1CCc2cc(O)c(N3CC(=O)NS3(=O)=O)c(F)c2C1 [Compound 145, 5-[8-fluoro-6-hydroxy-2-(4-methylpentyl)-1,2,3,4-tetrahydroisoquinolin-7-yl]-1λ^6,2,5-thiadiazolidine-1,1,3-trione]
read-out: B16F10 GI IC50
  pIC50: 5.00 to 6.00

## O=C1CN(c2c(O)cc3c(c2F)CN(CCC2CCCCC2)CC3)S(=O)(=O)N1 [Compound 179, 5-[2-(2-cyclohexylethyl)-8-fluoro-6-hydroxy-1,2,3,4-tetrahydroisoquinolin-7-yl]-1λ^6,2,5-thiadiazolidine-1,1,3-trione]
read-out: B16F10 GI IC50
  pIC50: 5.00 to 6.00

## Cc1noc(C)c1CN1CCc2cc(O)c(N3CC(=O)NS3(=O)=O)c(F)c2C1 [Compound 208, 5-{2-[(3,5-dimethyl-1,2-oxazol-4-yl)methyl]-8-fluoro-6-hydroxy-1,2,3,4-tetrahydroisoquinolin-7-yl}-1λ^6,2,5-thiadiazolidine-1,1,3-trione]
read-out: B16F10 GI IC50
  pIC50: 4.00 to 5.00

## O=C1CN(c2c(O)cc3c(c2F)CN(CCCC2CCCCC2)CC3)S(=O)(=O)N1 [Compound 286, 5-[2-(3-cyclohexylpropyl)-8-fluoro-6-hydroxy-1,2,3,4-tetrahydroisoquinolin-7-yl]-1λ^6,2,5-thiadiazolidine-1,1,3-trione]
read-out: B16F10 GI IC50
  pIC50: 5.00 to 6.00

## O=C1CN(c2c(O)cc3c(c2F)CN(CCCN2CCOCC2)CC3)S(=O)(=O)N1 [Compound 229, 5-{8-fluoro-6-hydroxy-2-[3-(morpholin-4-yl)propyl]-1,2,3,4-tetrahydroisoquinolin-7-yl}-1λ^6,2,5-thiadiazolidine-1,1,3-trione]
read-out: B16F10 GI IC50
  pIC50: 5.00 to 6.00

## Cc1n[nH]c(C)c1CCN1CCc2cc(O)c(N3CC(=O)NS3(=O)=O)c(F)c2C1 [Compound 194, 5-{2-[2-(3,5-dimethyl-1H-pyrazol-4-yl)ethyl]-8-fluoro-6-hydroxy-1,2,3,4-tetrahydroisoquinolin-7-yl}-1λ^6,2,5-thiadiazolidine-1,1,3-trione]
read-out: B16F10 GI IC50
  pIC50: 5.00 to 6.00

## O=C1CN(c2c(O)cc3c(c2F)CN(C(=O)NCC2CC(F)(F)C2)CC3)S(=O)(=O)N1 [Compound 262, N-[(3,3-difluorocyclobutyl)methyl]-8-fluoro-6-hydroxy-7-(1,1,4-trioxo-1λ^6,2,5-thiadiazolidin-2-yl)-3,4-dihydroisoquinoline-2(1H)-carboxamide]
read-out: B16F10 GI IC50
  pIC50: 4.00 to 5.00

## Cc1c(CCN2CCc3cc(O)c(N4CC(=O)NS4(=O)=O)c(F)c3C2)cnn1C [Compound 257, 5-{2-[2-(1,5-dimethyl-1H-pyrazol-4-yl)ethyl]-8-fluoro-6-hydroxy-1,2,3,4-tetrahydroisoquinolin-7-yl}-1λ^6,2,5-thiadiazolidine-1,1,3-trione]
read-out: B16F10 GI IC50
  pIC50: 5.00 to 6.00

## CC1(C)CCc2c(cc(O)c(N3CC(=O)NS3(=O)=O)c2F)O1 [Compound 112, 5-(5-fluoro-7-hydroxy-2,2-dimethyl-3,4-dihydro-2H-1-benzopyran-6-yl)-1λ^6,2,5-thiadiazolidine-1,1,3-trione]
read-out: B16F10 GI IC50
  pIC50: 4.00 to 5.00
